Measured values reported in patent publication US20260250318A1, “COMPOSITIONS AND METHODS FOR CROSSING THE BLOOD BRAIN BARRIER” (VOYAGER THERAPEUTICS, INC., priority 2022, published 2026).

Tests used:
[1] = tested on: brains, heart, liver, muscle, and DRG of the NHPs; assay: Maturation of TTM-001 and TTM-002 capsids, NGS enrichment in NHP tissues; assay type: in vivo; details: relative to AAV9 control
Method in brief: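 Variants carry mutations within and flanking the loop IV peptide insert: positions 450–466 were triplet-randomized, while positions 449–466 received low-frequency point mutations. The combined pool went into two NHPs, and each peptide was scored by NGS enrichment ratio against AAV9.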

[2] = tested on: brain; assay: Matured TTM-001 and TTM-002 variants, NGS enrichment in mouse brain; assay type: in vivo, mice; details: relative to AAV9 control
[3] = NGS fold-enrichment of RNA, NHP brain
[4] = NGS fold-enrichment, DRG of NHPs
[5] = NGS fold-enrichment, NHP liver DNA
[6] = NGS fold-enrichment, NHP liver RNA
[7] = NGS fold-enrichment, NHP muscle
[8] = NGS fold-enrichment, RNA, brain of NHPs
[9] = NGS fold-enrichment, heart of NHPs
[10] = NGS fold-enrichment, liver DNA of NHPs
[11] = NGS fold-enrichment, liver RNA of NHPs
[12] = NGS fold-enrichment, muscle of NHPs
[13] = NGS fold-enrichment, brain of mice
[14] = NGS fold-enrichment, mouse brain
[15] = NGS fold-enrichment of matured AAV capsid variants, NHP brain, RNA

Row | Sequence | Fold Enrichment relative to AAV9, Brain (NHP) [1, 3] [fold] | Fold Enrichment relative to AAV9, DRG (NHP) [1, 4] [fold] | Fold Enrichment relative to AAV9, DRG (NHP) ([1]; NGS fold-enrichment, NHP DRG) [fold] | Fold Enrichment relative to AAV9, Heart (NHP) ([1]; NGS fold-enrichment, NHP heart) [fold] | Fold Enrichment relative to AAV9, Liver DNA (NHP) [1, 5] [fold] | Fold Enrichment relative to AAV9, Liver RNA (NHP) [1, 6] [fold] | Fold Enrichment relative to AAV9, Muscle (NHP) [1, 7] [fold] | Fold Enrichment relative to AAV9, Brain (NHP) [1, 8] [fold] | Fold Enrichment relative to AAV9, Heart (NHP) [1, 9] [fold] | Fold Enrichment relative to AAV9, Liver DNA (NHP) [1, 10] [fold] | Fold Enrichment relative to AAV9, Liver RNA (NHP) [1, 11] [fold] | Fold Enrichment relative to AAV9, Muscle (NHP) [1, 12] [fold] | Fold Enrichment relative to AAV9, Brain (Mouse) [2, 13] [fold] | Fold Enrichment relative to AAV9, Brain (NHP) [1, 15] [fold] | Fold Enrichment relative to AAV9, DRG (NHP) ([1]; NHP DRG) [fold] | Fold Enrichment relative to AAV9, Heart (NHP) ([1]; NHP heart) [fold] | Fold Enrichment relative to AAV9, Liver DNA (NHP) ([1]; NHP liver, DNA) [fold] | Fold Enrichment relative to AAV9, Liver RNA (NHP) ([1]; NHP liver, RNA) [fold] | Fold Enrichment relative to AAV9, Muscle (NHP) ([1]; NHP muscle) [fold] | Fold Enrichment relative to AAV9, Brain (Mouse) ([2]; mouse brain) [fold] | other results
1 | KTFNGSGSPHSKAQGQQT | 99.253 | 0.000 | 0.000 | 0.208 | 0.099 | 0.128 | 0.000 | 99.253 | 0.208 | 0.099 | 0.128 | 0.000 | 81.459 |  |  |  |  |  |  |  | Fold Enrichment relative to AAV9, Brain (Mouse) [2, 14]: 81.459 fold
2 | KSDIGSGSPHSKAQNQQT |  |  |  |  |  |  |  |  |  |  |  |  |  | 57.592 | 0.000 | 0.000 | 0.128 | 0.844 | 0.000 | 107.342 | 
3 | KTINGSGSPHSKAQPART |  |  |  |  |  |  |  |  |  |  |  |  |  | 55.513 | 0.000 | 0.000 | 0.991 | 1.294 | 0.328 | 127.301 | 
4 | KTFNGGGSPHSKAQYQQT |  |  |  |  |  |  |  |  |  |  |  |  |  | 58.609 | 0.000 | 0.000 | 0.045 | 0.163 | 0.000 | 72.618 | 
5 | KNADGSGSPHSKAQNQQT |  | 0.000 |  |  |  |  |  | 60.944 | 0.000 | 0.085 | 1.239 | 0.000 | 104.503 |  |  |  |  |  |  |  | 
6 | KTSNGSGSPHSKAQNPPT | 91.528 | 0.000 | 0.000 | 0.000 | 0.039 | 0.000 | 0.000 | 91.528 | 0.000 | 0.039 | 0.000 | 0.000 | 51.541 |  |  |  |  |  |  |  | Fold Enrichment relative to AAV9, Brain (Mouse) [2, 14]: 51.541 fold
7 | KTERISGSPHSKAQNQQT | 103.692 | 0.000 | 0.000 | 0.000 | 0.370 | 0.062 | 0.000 | 103.692 | 0.000 | 0.370 | 0.062 | 0.000 | 89.637 |  |  |  |  |  |  |  | Fold Enrichment relative to AAV9, Brain (Mouse) [2, 14]: 89.637 fold
8 | KTINGSGSPHSKAQGQQA |  | 0.000 |  |  |  |  |  | 64.128 | 0.185 | 0.195 | 0.063 | 0.000 | 64.116 |  |  |  |  |  |  |  | 
9 | KTVNGGGSPHSKAQNLQT |  |  |  |  |  |  |  |  |  |  |  |  |  | 52.788 | 0.000 | 0.031 | 0.165 | 0.000 | 0.000 | 83.215 | 
10 | KTVKDSGSPHSKAQNQQT |  | 0.000 |  |  |  |  |  | 60.216 | 0.019 | 0.251 | 0.443 | 0.000 | 87.334 |  |  |  |  |  |  |  | 
